Results from patent publication US7732611B2, “Amine salt of carbostyril derivative” (Otsuka Pharmaceutical Co., Ltd., priority 2004, dated 2010).

Columns and labels:
[1] = Water-solubility test at 25° C. of the isolated salts (HPLC); type: physicochemical; settings: shaken 3 hours (5 days for meglumine salt), filtered, concentration of Compound A by HPLC
Protocol: Preparation of the Test Solution
After shaking, the mixture was filtered through a 0.45 μm membrane filter (0.2 μm for meglumine salt). 1 mL of the filtrate was precisely pipetted and thereto was added 50% DMF so as to be totally 50 mL in precise. 2 mL of this solution was precisely pipetted and thereto was added 50% DMF so as to be totally 20 mL in precise to give a sample solution.
Preparation of the Standard Solution
Using each 10 μL of the sample solutions and the standard solutions, the liquid chromatographic analyses were carried out in the following conditions.

[2] = Solubility test at 25° C. of the salt in a preparation prepared when used without isolating the salt (HPLC); type: physicochemical; settings: water, Compound A plus equimolar amine, salt not isolated, shaken 7 days, 0.2 μm filter
Protocol: And then as to a sample to which arginine was added, the suspension was filtered through a 0.2 μm membrane filter. […] And then the mixture was filtrated through a 0.2 μm membrane filter. According to the same method as Example 8, the solubilities (%) of each salt was measured by HPLC.

CC(O)CNCC(C)O.O=C(NC(Cc1cc(=O)[nH]c2ccccc12)C(=O)O)c1ccc(Cl)cc1 (centres unmarked) [Compound A·diisopropanolamine salt, 2-(4-chlorobenzoylamino)-3-(2-quinolon-4-yl)propionic acid.diisopropanolamine salt]
Solubility (%) [1]: 2.9%
Solubility (%) [2]: >7.4%
